Measurements as given in the supplement of paper PMC10883282.

Assays:
Assay in all cases: relative viability vs DMSO control (72 h) (fraction); higher = more viable cells
SK-LMS-1 = tested on: SK-LMS-1
Summary of the method: (§1)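 Sarcoma cell lines were plated in 384 wells to reach 80–90% confluence, treated after 24 h with 2.5 µl of serially diluted compound and held 72 h at 37 °C, 5% CO2. Relative viability was taken as percent growth from ATPLite readings, averaged over up to triplicate wells. The values were rescaled so that 1 marks full and 0 marks none.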

VA-ES-BJ = tested on: VA-ES-BJ
Summary of the method: as §1

KHOS-240S = tested on: KHOS-240S
Summary of the method: as §1

A204 = tested on: A204
Summary of the method: as §1

MES-SA = tested on: MES-SA
Summary of the method: as §1

SW1353 = tested on: SW1353
Summary of the method: as §1

SK-ES-1 = tested on: SK-ES-1
Summary of the method: as §1

RD = tested on: RD
Summary of the method: as §1

SW872 = tested on: SW872
Summary of the method: as §1

G401 = tested on: G401
Summary of the method: as §1

HS729 = tested on: HS729
Summary of the method: as §1

SW982 = tested on: SW982
Summary of the method: as §1

CNC(=O)c1nnc(NC(=O)C2CC2)cc1Nc1cccc(-c2ncn(C)n2)c1OC
Conditions | relative viability
A204, 0.00017 µM | 1.1
A204, 0.00051 µM | 1.09
A204, 0.00152 µM | 1.08
A204, 0.00457 µM | 1.06
A204, 0.01372 µM | 1.06
A204, 0.04115 µM | 1.06
A204, 0.1235 µM | 1.07
A204, 0.3704 µM | 1.09
A204, 1.111 µM | 1.11
A204, 3.333 µM | 1.01
A204, 10 µM | 0.714
G401, 0.00017 µM | 1
G401, 0.00051 µM | 0.988
G401, 0.00152 µM | 1.03
G401, 0.00457 µM | 1.03
G401, 0.01372 µM | 1.074
G401, 0.04115 µM | 1.02
G401, 0.1235 µM | 1.04
G401, 0.3704 µM | 1.031
G401, 1.111 µM | 1.013
G401, 3.333 µM | 0.999
G401, 10 µM | 0.906
HS729, 0.00017 µM | 0.934
HS729, 0.00051 µM | 0.925
HS729, 0.00152 µM | 0.869
HS729, 0.00457 µM | 0.885
HS729, 0.01372 µM | 0.9
HS729, 0.04115 µM | 0.931
HS729, 0.1235 µM | 0.906
HS729, 0.3704 µM | 0.8552
HS729, 1.111 µM | 0.86
HS729, 3.333 µM | 0.84
HS729, 10 µM | 0.761
KHOS-240S, 0.00017 µM | 1.08
KHOS-240S, 0.00051 µM | 1.07
KHOS-240S, 0.00152 µM | 1.059
KHOS-240S, 0.00457 µM | 1.05
KHOS-240S, 0.01372 µM | 1.07
KHOS-240S, 0.04115 µM | 1.04
KHOS-240S, 0.1235 µM | 1.06
KHOS-240S, 0.3704 µM | 1.07
KHOS-240S, 1.111 µM | 1.08
KHOS-240S, 3.333 µM | 1.06
KHOS-240S, 10 µM | 1.03
MES-SA, 0.00017 µM | 0.926
MES-SA, 0.00051 µM | 0.938
MES-SA, 0.00152 µM | 0.926
MES-SA, 0.00457 µM | 0.92
MES-SA, 0.01372 µM | 0.943
MES-SA, 0.04115 µM | 0.952
MES-SA, 0.1235 µM | 0.944
MES-SA, 0.3704 µM | 0.943
MES-SA, 1.111 µM | 0.923
MES-SA, 3.333 µM | 0.891
MES-SA, 10 µM | 0.669
RD, 0.00017 µM | 1.1
RD, 0.00051 µM | 1.11
RD, 0.00152 µM | 1.12
RD, 0.00457 µM | 1.12
RD, 0.01372 µM | 1.1
RD, 0.04115 µM | 1.09
RD, 0.1235 µM | 1.11
RD, 0.3704 µM | 1.08
RD, 1.111 µM | 1.1
RD, 3.333 µM | 1.09
RD, 10 µM | 0.994
SK-ES-1, 0.00017 µM | 1.03
SK-ES-1, 0.00051 µM | 1.03
SK-ES-1, 0.00152 µM | 1.1
SK-ES-1, 0.00457 µM | 1.03
SK-ES-1, 0.01372 µM | 1.07
SK-ES-1, 0.04115 µM | 1.04
SK-ES-1, 0.1235 µM | 1.02
SK-ES-1, 0.3704 µM | 1.04
SK-ES-1, 1.111 µM | 0.968
SK-ES-1, 3.333 µM | 0.891
SK-ES-1, 10 µM | 0.517
SK-LMS-1, 0.00017 µM | 1.09
SK-LMS-1, 0.00051 µM | 1.09
SK-LMS-1, 0.00152 µM | 1.06
SK-LMS-1, 0.00457 µM | 1.08
SK-LMS-1, 0.01372 µM | 1.1
SK-LMS-1, 0.04115 µM | 1.06
SK-LMS-1, 0.1235 µM | 1.08
SK-LMS-1, 0.3704 µM | 1.06
SK-LMS-1, 1.111 µM | 1.05
SK-LMS-1, 3.333 µM | 1.06
SK-LMS-1, 10 µM | 0.797
SW872, 0.00017 µM | 1.01
SW872, 0.00051 µM | 1
SW872, 0.00152 µM | 0.995
SW872, 0.00457 µM | 1.026
SW872, 0.01372 µM | 1.01
SW872, 0.04115 µM | 1.02
SW872, 0.1235 µM | 1.03
SW872, 0.3704 µM | 1.02
SW872, 1.111 µM | 1.02
SW872, 3.333 µM | 0.957
SW872, 10 µM | 0.768
SW982, 0.00017 µM | 1.05
SW982, 0.00051 µM | 1.06
SW982, 0.00152 µM | 1.05
SW982, 0.00457 µM | 1.04
SW982, 0.01372 µM | 1.05
SW982, 0.04115 µM | 1.06
SW982, 0.1235 µM | 1.06
SW982, 0.3704 µM | 1.07
SW982, 1.111 µM | 1.06
SW982, 3.333 µM | 1.02
SW982, 10 µM | 0.722
SW1353, 0.00017 µM | 0.962
SW1353, 0.00051 µM | 0.988
SW1353, 0.00152 µM | 0.968
SW1353, 0.00457 µM | 1
SW1353, 0.01372 µM | 0.985
SW1353, 0.04115 µM | 0.982
SW1353, 0.1235 µM | 0.978
SW1353, 0.3704 µM | 0.964
SW1353, 1.111 µM | 0.948
SW1353, 3.333 µM | 0.9937
SW1353, 10 µM | 0.911
VA-ES-BJ, 0.00017 µM | 0.986
VA-ES-BJ, 0.00051 µM | 0.996
VA-ES-BJ, 0.00152 µM | 1.02
VA-ES-BJ, 0.00457 µM | 1.04
VA-ES-BJ, 0.01372 µM | 1.035
VA-ES-BJ, 0.04115 µM | 1.03
VA-ES-BJ, 0.1235 µM | 1.03
VA-ES-BJ, 0.3704 µM | 1.01
VA-ES-BJ, 1.111 µM | 1.04
VA-ES-BJ, 3.333 µM | 0.974
VA-ES-BJ, 10 µM | 0.828
